According to patent US10525055B2, “Opioid receptor antagonist prodrugs” (Nirsum Laboratories, Inc., priority 2017, dated 2020):

Tests used:
[1] = cited from earlier work
[2] = Solubility determination in oil (cottonseed oil, sesame oil)
Method: A known amount of test substance (˜40 mg) was weighed into the vial, 100 μL of oil was added and heated to 60° C. and then system was slurried to reach equilibrium. […] Extra oil was added into the vial once compound precipitated out and then the system was re-equilibrated at 1000 rpm at room temperature (25° C.). Final concentration was determined by HPLC method as described below in Table 6a and 6b.

[3] = Equilibrium solubility in water; settings: obs. temp. 40 °C
[4] = Plasma stability assay, rat plasma; format: in vitro ADME; settings: 37° C., 10 μM
KOR = molecular target: T1, KOR (Homo sapiens, UniProt P41145); assay: Opioid receptor binding assay, KOR ([3H]Diprenorphine); settings: for %Inh@MaxDose: KOR, MaxDose 10000 nM
T1 construct: expressed in transfected cells; membranes prepared from them

MOR = molecular target: T2, MOR (Homo sapiens, UniProt P35372); assay: Opioid receptor binding assay, MOR ([3H]DAMGO); settings: for %Inh@MaxDose: MOR, MaxDose 10000 nM
T2 construct: expressed in transfected cells; membranes prepared from them

[5] = Polymorph screening of solid state drug substances; settings: for XRPD results (Dried): stirred 50 °C 72 hours, solids dried; for Visual observation 50° C. / Visual observation RT: target conc. 100 mg/ml
[6] = Plasma stability assay, dog plasma; format: in vitro ADME; settings: 37° C., 2 μM
Method: (§1) Plasma stability determination of the test compounds in rat, dog, cynomolgus monkey and human plasma is performed using HPLC-MS. For rat, incubations are carried out in 96-well polypropylene plates in 5 aliquots of 70 μL each (one for each time point). […] Five time points are analyzed (0, 15, 120, 480 and 1440 min). […] All incubations are performed in duplicates. The samples are analyzed by HPLC-MS. The percentage of parent compound remaining after incubation in plasma is determined.

[7] = Plasma stability assay, monkey plasma; format: in vitro ADME, cynomolgus monkey; settings: 37° C., 2 μM
Method: as §1

[8] = Plasma stability assay, human plasma; format: in vitro ADME; settings: 37° C., 2 μM
Method: as §1

[9] = Liver S9 fraction stability, dog; format: in vitro ADME; settings: 1.0 mg/ml S9 protein, 2 μM, 37° C.
Method: (§2) Liver S9 fraction stability determination of the test compounds in dog, cynomolgus monkey and human is performed using HPLC-MS. Test compound (2 μM, 0.1% DMSO, 1% Methanol final concentration) was assessed for stability in a 50 μl phosphate buffer containing 1.0 mg/ml S9 protein from each of the three species and 5 mM D-saccharic acid-1, 4-lactone. Samples were incubated at 37° C. for 60 minutes and the % compound remaining was assessed.

[10] = Liver S9 fraction stability, monkey; format: in vitro ADME, cynomolgus monkey; settings: 1.0 mg/ml S9 protein, 2 μM, 37° C.
Method: as §2

[11] = Liver S9 fraction stability, human; format: in vitro ADME; settings: 1.0 mg/ml S9 protein, 2 μM, 37° C.
Method: as §2

DOR = molecular target: T3, DOR (Homo sapiens, UniProt P41143); assay: Opioid receptor binding assay, DOR ([3H]-DADLE); settings: DOR, MaxDose 10000 nM
T3 construct: expressed in transfected cells; membranes prepared from them

[12] = Rat pharmacokinetic studies, intramuscular; format: in vivo, male Sprague Dawley Rats; settings: rat IM
Method: The purpose of this study is to determine the pharmacokinetics of test compounds in plasma, following intramuscular administration to male Sprague Dawley Rats (n=3, unless otherwise specified).
The dose formulation of 400 mg base equivalents/ml in sesame oil+1% benzyl alcohol (unless otherwise specified) was administered by intramuscular injection. The dose volume was determined by the animals' body weight determined on the morning of dosing day.
Each collected blood sample was centrifuged for 4 minutes at 4° C. and 10000 rpm for plasma collection. Plasma was collected and transferred into a pre-labeled PP tube in dry ice at each time point and precipitated immediately using ACN at a ratio of 1:4 (plasma:ACN). Centrifuged again (10 minutes, 12000 rpm) and obtain the supernatant.
After terminal collection, all supernatant was stored at approximately −80° C. until bioanalysis.
LC-MS/MS methods for the quantitative determination of test compound in biological matrix were developed. […] The sample analysis was performed concurrently with a set of calibration standards and two sets of QC samples using the LC-MS/MS method.
Plasma concentration versus time data was analyzed by non-compartmental approaches using the Phoenix WinNonlin 6.3 software program. Cmax, Tmax, T1/2, AUC(0-t), AUC(0-inf), MRT(0-t), MRT(0-inf) and graphs of plasma concentration versus time profile were prepared.

[13] = heating temp. 60 °C, obs. temp. 40 °C
[14] = 80 mg/kg, Cottonseed + 1% Benzyl Alcohol
[15] = 123 mg/kg, Cottonseed oil + 1% Benzyl Alcohol

T1 sequence (P41145 whole entry): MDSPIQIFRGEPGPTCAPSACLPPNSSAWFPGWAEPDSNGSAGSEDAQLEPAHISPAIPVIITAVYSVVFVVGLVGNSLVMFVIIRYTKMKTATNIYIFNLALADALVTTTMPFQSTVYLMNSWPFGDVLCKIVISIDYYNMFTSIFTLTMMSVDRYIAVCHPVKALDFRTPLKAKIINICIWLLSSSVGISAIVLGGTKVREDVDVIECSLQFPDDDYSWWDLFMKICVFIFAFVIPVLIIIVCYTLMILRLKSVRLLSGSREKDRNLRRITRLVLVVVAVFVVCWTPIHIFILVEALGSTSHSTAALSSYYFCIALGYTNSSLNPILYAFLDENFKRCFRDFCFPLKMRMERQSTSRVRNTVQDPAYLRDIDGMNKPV
T2 sequence (P35372 whole entry): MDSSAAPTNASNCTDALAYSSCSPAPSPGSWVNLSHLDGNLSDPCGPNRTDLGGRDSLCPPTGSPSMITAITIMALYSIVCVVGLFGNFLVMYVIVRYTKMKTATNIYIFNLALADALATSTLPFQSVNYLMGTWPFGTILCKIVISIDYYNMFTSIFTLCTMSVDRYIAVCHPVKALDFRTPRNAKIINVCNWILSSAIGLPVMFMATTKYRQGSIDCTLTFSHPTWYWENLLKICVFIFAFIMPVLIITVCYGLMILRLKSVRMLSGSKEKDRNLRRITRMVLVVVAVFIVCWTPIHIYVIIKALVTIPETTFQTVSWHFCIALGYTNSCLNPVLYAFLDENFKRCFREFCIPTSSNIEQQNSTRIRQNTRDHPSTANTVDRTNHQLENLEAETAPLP
T3 sequence (P41143 whole entry): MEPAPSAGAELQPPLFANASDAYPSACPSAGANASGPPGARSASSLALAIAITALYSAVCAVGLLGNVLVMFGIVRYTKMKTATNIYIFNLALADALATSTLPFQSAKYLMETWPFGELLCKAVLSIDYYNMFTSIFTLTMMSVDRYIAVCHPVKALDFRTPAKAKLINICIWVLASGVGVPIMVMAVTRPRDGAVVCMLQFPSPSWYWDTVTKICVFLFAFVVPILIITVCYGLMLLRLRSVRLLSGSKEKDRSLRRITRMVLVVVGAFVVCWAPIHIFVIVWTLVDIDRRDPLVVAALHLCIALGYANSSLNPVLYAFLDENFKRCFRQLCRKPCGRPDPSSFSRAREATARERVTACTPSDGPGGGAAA

Oc1ccc2c3c1O[C@H]1[C@H](O)CC[C@@]4(O)[C@@H](C2)N(CC2CC2)CC[C@]314 [6-β-naltrexol]
time of peak plasma levels after oral dosing [1]: one | mean elimination half-life ([1]; oral): thirteen

C=C1CC[C@@]2(O)[C@H]3Cc4ccc(O)c5c4[C@@]2(CCN3CC2CC2)[C@H]1O5 [61 (Nalmefene)]
Approximate Solubility (mg/mL) in Excipient: Cottonseed oil ([2]; Cottonseed oil, heating temp. 60 °C, obs. temp. 40 °C): <25.0 mg/mL | Approximate Solubility (mg/mL) in Excipient: Ethanol ([2]; Ethanol, heating temp. 60 °C, obs. temp. 40 °C): 102 to 137 mg/mL | Approximate Solubility (mg/mL) in Excipient: Sesame oil [2, 13]: <25.5 mg/mL | Equilibrium solubility (mg/mL) Water ([3]; heating temp. 60 °C): 0.025 mg/mL

C=C1CC[C@@]2(O)C3Cc4ccc(OC(=O)CCCCCCCCCCCCCCCCC)c5c4[C@@]2(CCN3CC2CC2)[C@H]1O5 [Compound 12, (4aS,7aS,12bS)-3-(cyclopropylmethyl)-4a-hydroxy-7-methylene-2,3,4,4a,5,6,7,7a-octahydro-1H-4,12-methanobenzofuro[3,2-e]isoquinolin-9-yl stearate]
Approximate Solubility (mg/mL) in Excipient: Sesame oil ([2]; heating temp. 60 °C, obs. temp. 25 °C): <50 mg/mL | Approximate Solubility (mg/mL) in Excipient: Sesame oil [2, 13]: >411.1 mg/mL | Equilibrium solubility (mg/mL) Water ([3]; heating temp. 40 °C): 0.026 mg/mL

C=C1CC[C@@]2(O)C3Cc4ccc(OC(=O)CCCCCCCCCCCCCCCCCCCCC)c5c4[C@@]2(CCN3CC2CC2)[C@H]1O5 [Compound 14, (4aS,7aS,12bS)-3-(cyclopropylmethyl)-4a-hydroxy-7-methylene-2,3,4,4a,5,6,7,7a-octahydro-1H-4,12-methanobenzofuro[3,2-e]isoquinolin-9-yl docosanoate]
% remaining at time point in minutes, 0 min [4]: 100% | % remaining at time point in minutes, 15 min [4]: 94% | % remaining at time point in minutes, 120 min [4]: 112% | % remaining at time point in minutes, 480 min [4]: 107% | % remaining at time point in minutes, 1440 min [4]: 120% | IC50 (KOR): 1770 nM | %Inh@MaxDose (KOR): 68.1% | IC50 (MOR): 12.5 nM | %Inh@MaxDose (MOR): 92.7% | Approximate Solubility (mg/mL) in Excipient: Sesame oil ([2]; heating temp. 40 °C, obs. temp. 40 °C): <51 mg/mL | Equilibrium solubility (mg/mL) Water ([3]; heating temp. 40 °C): 0.0056 mg/mL | XRPD results (Dried) ([5]; Acetone): Pattern A | Visual observation 50° C. ([5]; Acetone): Clear | Visual observation RT ([5]; Acetone): Slimy | XRPD results (Dried) ([5]; EtOAc): Pattern A | Visual observation 50° C. ([5]; EtOAc): Clear | Visual observation RT ([5]; EtOAc): Slurry | XRPD results (Dried) ([5]; Heptane): Pattern B | Visual observation 50° C. ([5]; Heptane): Slurry | Visual observation RT ([5]; Heptane): Slurry | XRPD results (Dried) ([5]; Isopropanol): Pattern A | Visual observation 50° C. ([5]; Isopropanol): Clear | Visual observation RT ([5]; Isopropanol): Clear | XRPD results (Dried) ([5]; MTBE): Pattern A | Visual observation 50° C. ([5]; MTBE): Clear | Visual observation RT ([5]; MTBE): Clear

C=C1CC[C@@]2(O)C3Cc4ccc(OCOC(=O)OCCCCCCCCCCCC)c5c4[C@@]2(CCN3CC2CC2)[C@H]1O5 [Compound 24, (((4aS,7aS,12bS)-3-(cyclopropylmethyl)-4a-hydroxy-7-methylene-2,3,4,4a,5,6,7,7a-octahydro-1H-4,12-methanobenzofuro[3,2-e]isoquinolin-9-yl)oxy)methyl dodecyl carbonate]
% remaining at time point in minutes, 0 min [4]: 100% | % remaining at time point in minutes, 15 min [4]: 32% | % remaining at time point in minutes, 120 min [4]: 11.8% | % remaining at time point in minutes, 480 min [4]: 8.2% | % remaining at time point in minutes, 1440 min [4]: 3% | % remaining at time point in minutes, 0 min ([6]; 0 min): 100% | % remaining at time point in minutes, 15 min ([6]; 15 min (as headed)): 94.7% | % remaining at time point in minutes, 120 min ([6]; 120 min (as headed)): 104.5% | % remaining at time point in minutes, 480 min ([6]; 480 min (as headed)): 115.7% | % remaining at time point in minutes, 1440 min ([6]; 1440 min (as headed)): 116.2% | % remaining at time point in minutes, 0 min ([7]; 0 min): 100% | % remaining at time point in minutes, 15 min ([7]; 15 min (as headed)): 90.7% | % remaining at time point in minutes, 120 min ([7]; 120 min (as headed)): 93.5% | % remaining at time point in minutes, 480 min ([7]; 480 min (as headed)): 96.2% | % remaining at time point in minutes, 1440 min ([7]; 1440 min (as headed)): 97.8% | % remaining at time point in minutes, 0 min ([8]; 0 min): 100% | % remaining at time point in minutes, 15 min ([8]; 15 min (as headed)): 94% | % remaining at time point in minutes, 120 min ([8]; 120 min (as headed)): 102.3% | % remaining at time point in minutes, 480 min ([8]; 480 min (as headed)): 105.3% | % remaining at time point in minutes, 1440 min ([8]; 1440 min (as headed)): 112.5% | Liver S9 Fraction Stability % remaining at 60 minutes, Dog [9]: 3.6% | Liver S9 Fraction Stability % remaining at 60 minutes, Monkey [10]: 3% | Liver S9 Fraction Stability % remaining at 60 minutes, Human [11]: 3.5% | %Inh@MaxDose (DOR): 48% | %Inh@MaxDose (KOR): 82.9% | %Inh@MaxDose (MOR): 88.7% | AUC0-inf (ng · h/mL) prodrug [12, 14]: 147 ng·h/mL | Half-life t1/2 (hour) prodrug [12, 14]: 398 h | AUC0-inf (ng · h/mL) prodrug [12, 15]: 547 ng·h/mL | Half-life t1/2 (hour) prodrug [12, 15]: 717 h | AUC0-inf (ng · h/mL) prodrug ([12]; 165 mg/kg, Cottonseed oil + 1% Benzyl Alcohol): 453 ng·h/mL

O=C(CCC1CCCC1)Oc1ccc2c3c1O[C@H]1C(=O)CC[C@@]4(O)C(C2)N(CC2CC2)CC[C@]314 [Compound 43, (4aS,7aR,12bS)-3-(cyclopropylmethyl)-4a-hydroxy-7-oxo-2,3,4,4a,5,6,7,7a-octahydro-1H-4,12-methanobenzofuro[3,2-e]isoquinolin-9-yl 3-cyclopentylpropanoate]
Equilibrium solubility (mg/mL) Water ([3]; heating temp. 40 °C): 0.048 mg/mL

O=C1CC[C@@]2(O)[C@H]3Cc4ccc(O)c5c4[C@@]2(CCN3CC2CC2)[C@H]1O5 [naltrexone, 17-(cyclopropylmethyl)-4,5α-epoxy-3,14-dihydroxymorphinan-6-one, reference compound]
time of peak plasma levels after oral dosing [1]: one
